Reference: patent US20240425483A1, “INDOLINES AS PROTAC COMPOUNDS” (NeoPhore Limited, priority 2021, published 2024)

The molecules below were run against T1, PMS2 protein (Homo sapiens, UniProt P54278) (assay: PROTAC screening in SW620 human colorectal carcinoma cells, PMS2 protein level by JESS Western blot). Settings: SW-620, 24 h, 1 uM compound, normalised to actin and DMSO control, Table A1.
T1 construct: host or cells: SW620 human colorectal carcinoma cells
T1 sequence (P54278 1-862): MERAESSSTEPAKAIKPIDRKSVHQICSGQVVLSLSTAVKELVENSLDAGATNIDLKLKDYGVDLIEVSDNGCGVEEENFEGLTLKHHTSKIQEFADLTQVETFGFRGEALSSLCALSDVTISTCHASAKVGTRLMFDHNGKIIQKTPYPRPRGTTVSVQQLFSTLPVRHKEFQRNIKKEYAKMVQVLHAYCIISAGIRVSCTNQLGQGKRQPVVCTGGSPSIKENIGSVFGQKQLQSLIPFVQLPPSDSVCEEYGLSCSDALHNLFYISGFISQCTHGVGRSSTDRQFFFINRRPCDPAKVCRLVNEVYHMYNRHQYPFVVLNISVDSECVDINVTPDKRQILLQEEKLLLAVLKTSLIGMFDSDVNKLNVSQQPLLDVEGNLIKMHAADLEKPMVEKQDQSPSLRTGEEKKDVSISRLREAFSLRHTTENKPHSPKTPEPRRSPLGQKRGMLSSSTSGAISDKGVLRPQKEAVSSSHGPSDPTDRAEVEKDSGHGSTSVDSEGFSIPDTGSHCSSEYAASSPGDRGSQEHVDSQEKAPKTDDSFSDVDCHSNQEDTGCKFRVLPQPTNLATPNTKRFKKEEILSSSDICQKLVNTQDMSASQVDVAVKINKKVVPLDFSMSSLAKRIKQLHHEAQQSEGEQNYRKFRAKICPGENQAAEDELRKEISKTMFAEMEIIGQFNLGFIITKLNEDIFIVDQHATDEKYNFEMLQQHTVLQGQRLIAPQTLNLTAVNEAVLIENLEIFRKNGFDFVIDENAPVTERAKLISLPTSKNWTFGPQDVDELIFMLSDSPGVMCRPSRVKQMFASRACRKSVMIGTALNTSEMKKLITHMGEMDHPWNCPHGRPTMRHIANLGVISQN
Assay type: cell-based
Method: PROTAC Screening Protocol Using SW620 Human Colorectal Carcinoma Cells
SVW620 cells (ATCC/[…]) were cultured in T75 Falcon flasks in culture media (F12/DMEM 1:1 media, 10% FCS, +L-G supplement). Cells were split twice a week, for a maximum of 6 weeks. Media was aspirated, and cells washed with 10 mL of sterile PBS. PBS was aspirated, and cells incubated with 1.5 mL TrypLE for up to 5 minutes at 37° C., 5% CO2. Once cells had detached, TrypLE was neutralised with 10 mL culture media and cells mixed 1:1 with Trypan blue and quantified using a Luna cell counter. Cells were then seeded into fresh T75 flasks with 1×10^6 cells and 10 mL culture media.
SW620 cells, cultured and counted as above, were used to seed 12 well plates at a density of 1.5×10^5 cells/well and incubated overnight at 37° C., 5% CO2. Test compounds were solubilized in DMSO to a stock concentration of 10 mM and serially diluted in DMSO and media to their test concentration; the final concentration of DMSO was 0.1% (v/v). Each concentration was tested in triplicate. SW620 cells were incubated with test compound for 24 hours at 37° C., 5% CO2. Media was aspirated from each well, and each well washed with 1 mL ice cold PBS. PBS was then aspirated, and 50 μL of cold lysis buffer (RIPA buffer supplemented with 1× protease inhibitors, Benzonase, MgCl) was added to each well; plates were then incubated on ice for 5 minutes. Cells were scraped using a pipette tip before being transferred to a fresh Eppendorf. Samples were spun at maximum speed in a benchtop centrifuge for 5 minutes at 4° C. and supernatant was then transferred to fresh tubes. Samples were stored at −80° C. until analysis.
Bicinchonininic acid (BCA) protein assay standards (2-0.125 mg/mL BSA) were prepared in advance. 6 μL of each standard was pipetted in duplicate into rows A and B of a 384-well assay plate. Test samples were diluted in lysis buffer (1:3-1:10) in a 384-well plate in duplicate. BCA Reagents were combined 50:1, Part A:Part B and 50 μL added to each well. Plates were incubated for 30 min at 37° C. in a plate incubator and read using a BCA protein 384 protocol on an EnSpire plate reader. Protein concentrations were calculated from a standard curve.
JESS Western Blot Protocol
Protein lysates were prepared using Protein Simple EZ standard pack reagents: 40 μL distilled H2O was added to a DTT tube (clear) and treated with 20 μL 10× sample buffer and 20 μL DTT to 5×MM tube (pink). 20 μL dH2O was added to biotinylated ladder tube (green).
Test samples were prepared by dilution to the required concentration (0.1 mg/mL) in 0.1× sample buffer. 1.25 μL 5× fluorescent master mix from the EZ standard pack was added to 5 μL sample for each lane to be loaded (e.g. 2.5 μL+10 μL if loading same sample into 2 wells). Samples were vortexed, briefly spun down and heated at 95° C. for 5 min in a PCR machine then vortexed again and briefly spun down before loading onto JESS cassettes (catalogue No: SM-W004) according to manufacturer's instructions (https://www.proteinsimple.com/technical_library.html?product=simplewestern&def_list=list). Protein expression was determined by the peak area of the target protein signal. Peak area of the target protein was normalised to peak area of the loading control (actin) and to DMSO control.

Row | SMILES | remaining activity at 1 µM [%]
1 | Cc1c(O)cc(O)c(C(=O)N2Cc3ccc(CN4CCN(CCOCCOCCOCCNc5cccc6c5C(=O)N(C5CCC(=O)NC5=O)C6=O)CC4)cc3C2)c1OCc1ccccc1 (stereo not drawn) [Example 1, 4-((2-(2-(2-(2-(4-((2-(2-(Benzyloxy)-4,6-dihydroxy-3-methylbenzoyl)isoindolin-5-yl)methyl)piperazin-1-yl)ethoxy)ethoxy)ethoxy)ethyl)amino)-2-(2,6-dioxopiperidin-3-yl)isoindoline-1,3-dione] | 10 to 25
2 | Cc1c(O)cc(O)c(C(=O)N2Cc3ccc(CN4CCN(CCOCCOCCNc5cccc6c5C(=O)N(C5CCC(=O)NC5=O)C6=O)CC4)cc3C2)c1OCc1ccccc1 (stereo not drawn) [Example 2, 4-((2-(2-(2-(4-((2-(2-(Benzyloxy)-4,6-dihydroxy-3-methylbenzoyl)isoindolin-5-yl)methyl)piperazin-1-yl)ethoxy)ethoxy)ethyl)amino)-2-(2,6-dioxopiperidin-3-yl)isoindoline-1,3-dione] | 25 to 50
3 | Cc1c(O)cc(O)c(C(=O)N2Cc3ccc(CN4CCN(CCOCCOCCOCCOCCNc5cccc6c5C(=O)N(C5CCC(=O)NC5=O)C6=O)CC4)cc3C2)c1OCc1ccccc1 (stereo not drawn) [Example 3, 4-((14-(4-((2-(2-(Benzyloxy)-4,6-dihydroxy-3-methylbenzoyl)isoindolin-5-yl)methyl)piperazin-1-yl)-3,6,9,12-tetraoxatetradecyl)amino)-2-(2,6-dioxopiperidin-3-yl)isoindoline-1,3-dione] | 10 to 25
4 | Cc1c(O)cc(O)c(C(=O)N2Cc3ccc(CN4CCN(CCOCCOCCOCCOCCOCCNc5cccc6c5C(=O)N(C5CCC(=O)NC5=O)C6=O)CC4)cc3C2)c1OCc1ccccc1 (stereo not drawn) [Example 4, 4-((17-(4-((2-(2-(Benzyloxy)-4,6-dihydroxy-3-methylbenzoyl)isoindolin-5-yl)methyl)piperazin-1-yl)-3,6,9,12,15-pentaoxaheptadecyl)amino)-2-(2,6-dioxopiperidin-3-yl)isoindoline-1,3-dione] | < 10
5 | Cc1c(O)cc(O)c(C(=O)N2Cc3ccc(CN4CCN(CCOCCOCCOCCNc5cccc6c5C(=O)N(C5CCC(=O)NC5=O)C6=O)CC4)cc3C2)c1OCC1CCCCC1 (stereo not drawn) [Example 5, 4-[2-[2-[2-[2-[4-[[2-[2-(Cyclohexylmethoxy)-4,6-dihydroxy-3-methyl-benzoyl]isoindolin-5-yl]methyl]piperazin-1-yl]ethoxy]ethoxy]ethoxy]ethylamino]-2-(2,6-dioxo-3-piperidyl)isoindoline-1,3-dione] | 10 to 25
6 | Cc1c(O)cc(O)c(C(=O)N2Cc3ccc(CN4CCN(CCOCCOCCOCCOCCNc5cccc6c5C(=O)N(C5CCC(=O)NC5=O)C6=O)CC4)cc3C2)c1OCC1CCCCC1 (stereo not drawn) [Example 6, 4-[2-[2-[2-[2-[2-[4-[[2-[2-(Cyclohexylmethoxy)-4,6-dihydroxy-3-methyl-benzoyl]isoindolin-5-yl]methyl]piperazin-1-yl]ethoxy]ethoxy]ethoxy]ethoxy]ethylamino]-2-(2,6-dioxo-3-piperidyl)isoindoline-1,3-dione] | < 10
7 | Cc1c(O)cc(O)c(C(=O)N2Cc3ccc(CN4CCN(CCOCCOCCOCCOCCOCCNc5cccc6c5C(=O)N(C5CCC(=O)NC5=O)C6=O)CC4)cc3C2)c1OCC1CCCCC1 (stereo not drawn) [Example 7, 4-[2-[2-[2-[2-[2-[2-[4-[[2-[2-(Cyclohexylmethoxy)-4,6-dihydroxy-3-methyl-benzoyl]isoindolin-5-yl]methyl]piperazin-1-yl]ethoxy]ethoxy]ethoxy]ethoxy]ethoxy]ethylamino]-2-(2,6-dioxo-3-piperidyl)isoindoline-1,3-dione] | 10 to 25
8 | Cc1c(O)cc(O)c(C(=O)N2Cc3ccc(CN4CCN(CCOCCOCCOCCOCCOCCOCCNc5cccc6c5C(=O)N(C5CCC(=O)NC5=O)C6=O)CC4)cc3C2)c1OCC1CCCCC1 (stereo not drawn) [Example 8, 4-[2-[2-[2-[2-[2-[2-[2-[4-[[2-[2-(Cyclohexylmethoxy)-4,6-dihydroxy-3-methyl-benzoyl]isoindolin-5-yl]methyl]piperazin-1-yl]ethoxy]ethoxy]ethoxy]ethoxy]ethoxy]ethoxy]ethylamino]-2-(2,6-dioxo-3-piperidyl)isoindoline-1,3-dione] | 10 to 25
9 | Cc1c(O)cc(O)c(C(=O)N2Cc3ccc(CN4CCN(CCOCCOCCOCCOc5cccc6c5C(=O)N(C5CCC(=O)NC5=O)C6=O)CC4)cc3C2)c1OCc1ccccc1 (stereo not drawn) [Example 9, 4-(2-(2-(2-(2-(4-((2-(2-(Benzyloxy)-4,6-dihydroxy-3-methylbenzoyl)isoindolin-5-yl)methyl)piperazin-1-yl)ethoxy)ethoxy)ethoxy)ethoxy)-2-(2,6-dioxopiperidin-3-yl)isoindoline-1,3-dione] | 10 to 25
10 | Cc1c(O)cc(O)c(C(=O)N2Cc3ccc(CN4CCN(CCOCCOCCOc5cccc6c5C(=O)N(C5CCC(=O)NC5=O)C6=O)CC4)cc3C2)c1OCc1ccccc1 (stereo not drawn) [Example 10, 4-(2-(2-(2-(4-((2-(2-(Benzyloxy)-4,6-dihydroxy-3-methylbenzoyl)isoindolin-5-yl)methyl)piperazin-1-yl)ethoxy)ethoxy)ethoxy)-2-(2,6-dioxopiperidin-3-yl)isoindoline-1,3-dione] | 25 to 50
11 | Cc1c(O)cc(O)c(C(=O)N2Cc3ccc(CN4CCN(CCOCCOCCOCCOCCOc5cccc6c5C(=O)N(C5CCC(=O)NC5=O)C6=O)CC4)cc3C2)c1OCc1ccccc1 (stereo not drawn) [Example 11, 4-((14-(4-((2-(2-(Benzyloxy)-4,6-dihydroxy-3-methylbenzoyl)isoindolin-5-yl)methyl)piperazin-1-yl)-3,6,9,12-tetraoxatetradecyl)oxy)-2-(2,6-dioxopiperidin-3-yl)isoindoline-1,3-dione] | 10 to 25
12 | Cc1c(O)cc(O)c(C(=O)N2Cc3ccc(CN4CCN(CCOCCOCCOCCOCCOCCOc5cccc6c5C(=O)N(C5CCC(=O)NC5=O)C6=O)CC4)cc3C2)c1OCc1ccccc1 (stereo not drawn) [Example 12, 4-((17-(4-((2-(2-(Benzyloxy)-4,6-dihydroxy-3-methylbenzoyl)isoindolin-5-yl)methyl)piperazin-1-yl)-3,6,9,12,15-pentaoxaheptadecyl)oxy)-2-(2,6-dioxopiperidin-3-yl)isoindoline-1,3-dione] | 10 to 25
13 | Cc1c(O)cc(O)c(C(=O)N2Cc3ccc(CN4CCN(CCOCCOCCOCCNc5ccc6c(c5)C(=O)N(C5CCC(=O)NC5=O)C6=O)CC4)cc3C2)c1OCc1ccccc1 (stereo not drawn) [Example 13, 5-((2-(2-(2-(2-(4-((2-(2-(Benzyloxy)-4,6-dihydroxy-3-methylbenzoyl)isoindolin-5-yl)methyl)piperazin-1-yl)ethoxy)ethoxy)ethoxy)ethyl)amino)-2-(2,6-dioxopiperidin-3-yl)isoindoline-1,3-dione] | 10 to 25

Same assay, conditions: SW-620, 24 h, 1 uM compound, upon further testing, Table A2

Row | SMILES | remaining activity at 1 µM [%]
14 | Cc1c(O)cc(O)c(C(=O)N2Cc3ccc(CN4CCN(CCOCCOCCNc5cccc6c5C(=O)N(C5CCC(=O)NC5=O)C6=O)CC4)cc3C2)c1OCc1ccccc1 (stereo not drawn) [Example 2, 4-((2-(2-(2-(4-((2-(2-(Benzyloxy)-4,6-dihydroxy-3-methylbenzoyl)isoindolin-5-yl)methyl)piperazin-1-yl)ethoxy)ethoxy)ethyl)amino)-2-(2,6-dioxopiperidin-3-yl)isoindoline-1,3-dione] | 10 to 25
15 | Cc1c(O)cc(O)c(C(=O)N2Cc3ccc(CN4CCN(CCOCCOCCOCCOCCOCCOc5cccc6c5C(=O)N(C5CCC(=O)NC5=O)C6=O)CC4)cc3C2)c1OCc1ccccc1 (stereo not drawn) [Example 12, 4-((17-(4-((2-(2-(Benzyloxy)-4,6-dihydroxy-3-methylbenzoyl)isoindolin-5-yl)methyl)piperazin-1-yl)-3,6,9,12,15-pentaoxaheptadecyl)oxy)-2-(2,6-dioxopiperidin-3-yl)isoindoline-1,3-dione] | < 10
